Entries after “also recorded” stand apart in the source; their conditions may differ.
Assays:
[1] = test system: LOX-IMVI tumors; assay: LOX-IMVI inducible shRNA subcutaneous xenograft; type: in vivo; conditions: for tumor growth: 2 mg/ml Dox plus 5% sucrose in drinking water, start at 100-150 mm^3
Method: (§1) Six- to 8-week-old female athymic nu/nu mice or scid-beige mice were purchased from Charles River Laboratories. To assay for BRAF role in subcutaneous tumor models, mice were injected in the right flank with either 3×10^6 human LOX-IMVI or 1×10^7 human A375 TASK121-shRNA containing cell clones in 200 μL phosphate-buffered saline (PBS). When tumors reached a mean volume of 100-150 mm^3 the mice with similarly sized tumors were grouped into treatment cohorts. Mice received 5% sucrose only or 5% sucrose plus 1-2 mg/ml doxycycline for control and knockdown cohorts, respectively. All water bottles were changed 3 times per week. Tumors were measured with calipers and mice weighed twice per week. Mice whose tumors reach 2000 mm^3 were euthanized. At the end of the dosing study, or as indicated, appropriate tumor samples were taken. Each treatment group consisted of 7-10 mice and results are presented as mean tumor volume ±standard deviation (FIGS. 10C-E).

[2] = test system: A375M-luc/shRNA-BRAF cells; assay: A375M-luc systemic (metastatic) tumor model, survival and bioluminescence; type: in vivo, scid-beige mice; conditions: 1 mg/ml Dox in drinking water (Dox-mediated BRAF knockdown); i.v. 4×10^5 A375M-luc/shRNA-BRAF cells
Method: To evaluate the efficacy of TASK121 knockdown in this model, cohorts of mice with similarly increasing tumor burden were divided into treatment groups. Scid-beige mice were injected intraperitoneally with […] 200 mg/kg D-luciferin (Biotium, Hayward, Calif.) and anesthetized using isoflurane. During image acquisition in a light-tight box, the animal was maintained on isoflurane via nose cone, and body temperature was maintained using a warming pad. Bioluminescence images were acquired using a cooled intensified charge-coupled device camera in an in vivo imaging system (Xenogen, Alameda, Calif.). Image acquisition times were about 1 minute. Images were processed by co-registering a reference image with a thresholded bioluminescence data image.
For metastatic tumor models, female scid-beige mice were injected intravenously with 50 μL PBS containing 4×10^5 A375M-luc shRNA cell clones. Tumor progression was monitored by weekly bioluminescence imaging for luciferase and mice were monitored daily for survival. At least 9 mice were used for each cohort. […] This is a promising strategy to inhibit certain metastatic tumors.

[3] = test system: BRAF; assay: BRAF knockdown in melanoma cell clones (immunoblot densitometry, quantitative PCR); type: cell-based, human; conditions: melanoma cell clones expressing inducible BRAF shRNA
Source text: FIG. 10: Inducible knockdown of BRAF expression prevents melanoma tumor growth. (A). Schematic representation of a retroviral vector for tetracycline/doxycycline-inducible synthesis of shRNA. The Tet-repressor is constitutively expressed from the β-actin promoter and H1 RNA polymerase III promoter-driven transcription is thereby repressed in the absence of Dox by binding of the TetR protein to the Tet-responsive element sequence located immediately downstream of the TATA box. Addition of Dox results in dissociation of the TetR protein and derepression of the shRNA transcriptional unit. TATA, TATA box; TRE, Tet-responsive element; TetR, Tet-repressor protein; IRES, internal ribosomal entry site; PURO, puromycin resistance gene; LTR, long terminal repeat. B. Experimental validation of BRAF knockdown in melanoma cell lines. […] Lysates were then analyzed by immunoblotting. […]
We generated stable cells that expressed the inducible shRNA retroviral vector shown in FIG. 10A (based on pHUSH-GW). […] In the uninduced state, cells expressing the inducible hairpins were not altered in their baseline growth properties and no discernable background expression could be detected (data not shown). […] BRAF knockdown was reversible and time-dependent, with the maximal mRNA depletion detected 2 days post induction and the corresponding protein depletion occurring at day 3.

[4] = test system: tumor; conditions: Teicher et al. 2002; cited from earlier work
[5] = test system: pGL3-mu-p53 (murine p53 sequences); assay: Luciferase-based transient co-transfection comparing shRNA and miRNA vectors against p53; type: cell-based; conditions: p53-1 sequence, higher transfection ratios
Source text: FIG. 15: Luciferase-based transient co-transfection experiments compared shRNA and miRNA inducible expression vector performance. A. Comparison of H1-shRNA and CMV-miR vectors corresponding to murine p53 sequences transfected at 7.5:1, 5:1 and 2.5:1 shRNA:pGL3-mu-p53. B. The removal of the EmGFP leader rendered miR-p53-1 non-functional at a co-transfection ratio of 10:1.
In order to compare the efficacy of shRNA versus miRNA design, two effective miRNAs directed against p53 were converted to H1-shRNAs by identifying the 21-22 nt active siRNA within the miRNA scaffold and then by converting these active siRNAs back to N19 shRNAs. In addition, we examined the effect of having a linker sequence upstream of the miRNA. The following oligonucleotides were used in this study: […]

[6] = test system: TetR protein; assay: Western analysis of TetR protein expression in transiently transfected 293T cells; type: cell-based; conditions: transient transfection, compared to wildtype TetR coding sequence
Method: To confirm that codon optimization of the TetR coding region increased expression of the TetR protein, Western analysis was performed. Briefly, plasmids containing the retroviral backbone comprising either wild type TetR (WT) or the codon optimized TetR (OPT) were transiently transfected into 293T cells using lipofectin (commercially available from GIBCO-BRL, Gaithersburg, Md.). Cell lysates were prepared by addition of 50 mM HEPES pH 7.4, 100 mM NaCl, 50 mM NaF, 5 mM B-glycerophosphate, 2 mM EGTA, 1 mM Na vanadate, 1% TX100 to a cell pellet, resolved on a 4-12% acrylamide gel and transferred to a PVDF membrane. Membranes were sequentially probed with Mouse α-TetR (1:5000; MolBiTec) and Rabbit α-Tubulin-HRP (1:5000, Santa Cruz Biotech, Santa Cruz, Calif.). […] “Ev” signifies negative control using retroviral vector lacking a shRNA cassette.

[7] = test system: pHUSH shGL3 clone B11 tumors; assay: Tumor volume of pHUSH shGL3 clone B11 tumors at each Dox concentration; type: in vivo, mice; conditions: luciferase-targeting shRNA
Method: FIG. 6: (A) The relative change in mean bioluminescence at each time point and treatment condition (n=5 mice per doxycycline dose). […] In addition to the luciferase expression analysis, tumor volume measurements were recorded for the pHUSH shGL3 clone B11 at each concentration of doxycycline.
To determine whether Dox or shRNA expression influenced tumor growth in vivo, tumor volume measurements were recorded for the tumors at each concentration of Dox.

[8] = test system: A375 tumors; assay: A375 inducible shRNA subcutaneous xenograft; type: in vivo, athymic nu/nu mice; conditions: 2 mg/ml Dox in drinking water
Method: as §1

## C[C@H]1c2cccc(O)c2C(=O)C2=C(O)[C@]3(O)C(=O)C(C(N)=O)=C(O)[C@@H](N(C)C)[C@@H]3[C@@H](O)[C@@H]21 [Dox, 1-dimethylamino-2,4-a,5,7,12-pentahydroxy-11-methyl-4,6-dioxo-1,4a,11,11a,12,12a-hexahydrotetracene-3-carboxamide]
[1]; 2 mg/ml Dox plus 5% sucrose vs 5% sucrose
  body weight between treatment groups: no difference in body weight
[1]; 2 mg/ml Dox via drinking water, LOX-IMVI and A375 xenograft experiments
  lethality or weight loss: No lethality or weight loss was observed
[1]; pHUSH vector system, drinking water
  lower threshold for in vivo expression of the shRNA: ~0.02 mg/mL
[2]
  median survival: 33.4 days
[3]
  Dox IC50 for suppression of BRAF protein levels: approximately 5 ng/ml

## Cl.Cn1cc(C2=C(c3cn(C4CCN(Cc5ccccn5)CC4)c4ccccc34)C(=O)NC2=O)c2ccccc21 [317615-HCL]
[4]
  anti-tumor effect: anti-tumor effect

B1: H1-shRNA-p53-1: H1 promoter N19 shRNA converted from the p53-1 miRNA (nucleic acid)
DNA: GATCCCCAGTACGTGCACATAACAGACTTTCAAGAGAAGTCTGTTGTGCACGTACTTTTTTTGGAAA
[5]
  knockdown compared to CMV-miR: slight increase in knockdown

B2: codon optimized TetR: TetR coding region codon optimized for mammalian expression (SEQ ID NO:1) (nucleic acid)
DNA: ATGTCCAGACTGGATAAGTCCAAGGTGATTAATTCCGCTCTGGAACTCCTGAACGAGGTCGGCATCGAGGGACTGACCACACGGAAGCTGGCTCAGAAACTCGGCGTCGAACAGCCTACCCTCTACTGGCATGTCAAAAATAAGAGAGCCCTCCTGGACGCCCTGGCTATCGAGATGCTGGACAGACACCACACCCACTTCTGCCCCCTGGAAGGCGAATCCTGGCAGGATTTCCTCCGGAACAACGCTAAAAGCTTTAGATGCGCCCTCCTCAGCCATAGAGACGGAGCTAAAGTGCACCTGGGAACCCGGCCTACAGAAAAACAGTACGAGACACTGGAAAACCAGCTCGCTTTCCTCTGCCAACAAGGCTTTAGCCTGGAAAACGCCCTCTACGCTCTCAGCGCTGTCGGCCATTTTACACTGGGCTGCGTGCTCGAGGACCAGGAGCACCAAGTGGCTAAAGAGAGCGGGAAACCCCTACCACCGATAGCATGCCCCCCCTGCTGAGACAAGCCATTGAGCTCTTTGATCATCAGGGAGCTGAACCCGCCTTCCTCTTTGGACTCGAACTCATTATTTGCGGACTCGAGAAGCAACTGAAATGCGAAAGCGGAAGCGCCTACTCCGGCTCCAGAGAATTTCGGTCCTACTAG
modifications: Codon-optomized TetR
[6]
  expression of the TetR protein: significantly increased expression of the TetR protein

B3: Luciferase control shRNA: shRNA targeting the luciferase coding region (SEQ ID NO:9 / 15) in pHUSH (nucleic acid)
sense: GATCCCCCTTACGCTGAGTACTTCGATTCAAGAGATCGAAGTACTCAGCGTAAGTTTTTTGGAAA
antisense: AGCTTTTCCAAAAAACTTACGCTGAGTACTTCGATCTCTTGAATCGAAGTACTCAGCGTAAGGGG
[1]
  tumor growth: did not affect tumor growth kinetics
[1]; listed as control shRNA directed against Luciferase
  tumor growth: continued to increase in size
[7]
  influence on tumor growth in vivo (tumor volume): does not influence tumor growth in vivo

B4: GFP control shRNA: EGFP shRNA (SEQ ID NO:17/18) control hairpin in pHUSH (nucleic acid)
sense: GATCCCCAGATCCGCCACAACATCGATTCAAGAGATCGATGTTGTGGCGGATCTTGTTTTTTGGAAA
antisense: AGCTTTTCCAAAAAACAAGATCCGCCACAACATCGATCTCTTGAATCGATGTTGTGGCGGATCTGGG
[8]
  tumor growth: no discernable effect on tumor growth; also recorded: did not affect tumor growth kinetics
